Experimental findings from PubChem BioAssay (NCI) are described below.

Some test systems named below: DMS 273 small cell lung; M19-MEL melanoma; DMS 114 small cell lung; HOP-62 NSCLC; DLD-1 colon; KM20L2 colon; A549 NSCLC; SF-268 CNS; U251 CNS; NCI-H23 lung; HL-60(TB) leukemia; XF 498 CNS; SNB-78 CNS; MDA-N.
What all share (assay): NCI anticancer screen, dose series, 48 h

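Cultured in 96-well plates, cells were exposed to test compound for 48 hours across five concentrations. TGI denotes the concentration required for complete inhibition of growth.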

In the case of `CC1C(=O)O[C@H]2C1CC[C@@]1(C)[C@H](O)CC[C@@]13C[C@]2(O)OO3` (stereo partly specified), the TGI with DMS 273 small cell lung, in the experiment on M19-MEL melanoma, in the experiment with DMS 114 small cell lung, in the experiment with HOP-62 NSCLC, in the experiment with DLD-1 colon and with KM20L2 colon was over 100 µM each time. Also, the TGI in the experiment on A549 NSCLC, with SF-268 CNS, with U251 CNS, in the experiment on NCI-H23 lung and with HL-60(TB) leukemia was over 100 µM each time.

For the compound `CCOP(=O)(OCC)C1=NC=CC=CC1n1c(-c2ccccc2)nn(CC)c1=O` (stereo unspecified), the TGI in the experiment on DMS 273 small cell lung, in the experiment on M19-MEL melanoma, in the experiment with DMS 114 small cell lung, with HOP-62 NSCLC, with DLD-1 colon and with KM20L2 colon was over 100 µM each time. Besides, the TGI with A549 NSCLC, in the experiment on SF-268 CNS, in the experiment with U251 CNS, in the experiment with NCI-H23 lung and in the experiment on HL-60(TB) leukemia was over 100 µM throughout.

`O=c1c2ccccc2[nH]c2cc(O)cc(O)c12`: the TGI in the experiment on DMS 273 small cell lung, in the experiment with M19-MEL melanoma, in the experiment on XF 498 CNS, in the experiment with A549 NSCLC, with SF-268 CNS and with U251 CNS was over 100 µM throughout. The TGI with NCI-H23 lung, in the experiment with SNB-78 CNS and in the experiment with HL-60(TB) leukemia was over 100 µM in each case.

Take `CCCCCCC(C)OC(=O)/C=C(\CC(=O)OC(C)CCCCCC)C(=O)OC(C)CCCCCC` (stereo unspecified): the TGI with DMS 273 small cell lung, in the experiment on M19-MEL melanoma, in the experiment with DMS 114 small cell lung, with HOP-62 NSCLC, in the experiment on DLD-1 colon and with KM20L2 colon was over 100 µM each time. Further, the TGI with A549 NSCLC, in the experiment on SF-268 CNS, in the experiment with U251 CNS, in the experiment with NCI-H23 lung, with SNB-78 CNS and in the experiment on HL-60(TB) leukemia was over 100 µM throughout.

As for `CCCCCCCCCCCCCCCCCCOCC(COP(=O)([O-])OCC[N+](C)(C)C)OC` (stereo unspecified), the TGI in the experiment on DMS 273 small cell lung is 10.5 µM; in the experiment with M19-MEL melanoma, 16.8 µM; in the experiment with XF 498 CNS, 28.8 µM; in the experiment with DMS 114 small cell lung it was 26.8 µM; in the experiment on HOP-62 NSCLC, over 58.9 µM; in the experiment on DLD-1 colon it was 17.7 µM. In addition, the TGI in the experiment on KM20L2 colon is 9.02 µM; in the experiment with A549 NSCLC, 49.3 µM; in the experiment with SF-268 CNS, 51.8 µM; in the experiment with U251 CNS it was 42.8 µM; in the experiment on MDA-N it was over 100 µM; with NCI-H23 lung, 61.6 µM. The TGI in the experiment on SNB-78 CNS turned out to be 49.2 µM; in the experiment with HL-60(TB) leukemia it was 13.6 µM.

As for `CCN(CC)CCCC(C)NC(=O)c1ccc2c(c1)C(=O)c1ccccc1C2=O` (stereo unspecified), the TGI amounted to 46.2 µM with DMS 273 small cell lung; 32 µM in the experiment with M19-MEL melanoma; 21.3 µM in the experiment on XF 498 CNS; 20 µM in the experiment with DMS 114 small cell lung; 69.9 µM in the experiment with HOP-62 NSCLC; 45.4 µM in the experiment with DLD-1 colon. For the same compound, the TGI was determined as 51.9 µM in the experiment on KM20L2 colon; 57.4 µM in the experiment with A549 NSCLC; 80.4 µM in the experiment on SF-268 CNS; 50.4 µM with U251 CNS; 24.2 µM in the experiment on NCI-H23 lung; 47.4 µM in the experiment on SNB-78 CNS. The same compound registered a TGI in the experiment on HL-60(TB) leukemia of 34.2 µM.

As to `C/C(=N\N=C(N)N)C(CN(C)C)C(c1ccccc1)c1c(O)c2ccccc2oc1=O` (stereo unspecified), the TGI in the experiment with DMS 273 small cell lung, in the experiment with M19-MEL melanoma, in the experiment with XF 498 CNS, in the experiment on DMS 114 small cell lung, in the experiment on HOP-62 NSCLC and in the experiment with DLD-1 colon was over 100 µM in each case. Further, the TGI in the experiment on KM20L2 colon, in the experiment with A549 NSCLC, with SF-268 CNS, in the experiment on U251 CNS, with MDA-N and in the experiment with NCI-H23 lung was over 100 µM in each case. Moreover, the TGI in the experiment on SNB-78 CNS and with HL-60(TB) leukemia was over 100 µM each time.

Consider `CC(C)C(=O)/C=C/c1ccc(Cl)c(Cl)c1`, for which the TGI in the experiment with M19-MEL melanoma amounted to 32.3 µM; in the experiment with XF 498 CNS, 25.1 µM; with DMS 114 small cell lung, 42.3 µM; in the experiment with DLD-1 colon it was 34.2 µM; with KM20L2 colon it was 37.8 µM; with A549 NSCLC, 49.2 µM. For the same compound, the TGI in the experiment on SF-268 CNS is 40.4 µM; in the experiment with U251 CNS, 30.7 µM; with NCI-H23 lung, 36.5 µM; in the experiment with SNB-78 CNS, over 100 µM; in the experiment on HL-60(TB) leukemia it was 47 µM.

For the compound `O=C1c2ccccc2C(=O)c2c(O)ccc(O)c21`, the TGI in the experiment on DMS 273 small cell lung is over 100 µM; with M19-MEL melanoma, 69.2 µM; in the experiment with DMS 114 small cell lung it was over 100 µM; in the experiment on HOP-62 NSCLC, over 100 µM; in the experiment on DLD-1 colon, over 100 µM; with A549 NSCLC, over 100 µM. Besides, the TGI in the experiment with SF-268 CNS, in the experiment on U251 CNS, in the experiment with NCI-H23 lung, with SNB-78 CNS and in the experiment with HL-60(TB) leukemia was over 100 µM throughout.

Turning to `COc1cc(C2c3cc4c(cc3[C@@H](Nc3cccc([N+](=O)[O-])c3)C3COC(=O)[C@H]23)OCO4)cc(OC)c1O` (stereo partly specified), the TGI is 6.11 µM in the experiment on DMS 273 small cell lung; over 100 µM in the experiment on M19-MEL melanoma; over 40.2 µM with XF 498 CNS; 9.18 µM with DMS 114 small cell lung; 3.31 µM in the experiment with HOP-62 NSCLC; 17.1 µM in the experiment with DLD-1 colon. Further, the TGI with KM20L2 colon is over 42 µM; in the experiment with A549 NSCLC, 4.38 µM; in the experiment on SF-268 CNS, over 51.5 µM; in the experiment with NCI-H23 lung, 4.65 µM; with SNB-78 CNS, 53.9 µM; with HL-60(TB) leukemia, 4.3 µM.

On to `CC(C)C1CC[C@H](C)C[C@@H]1OC(=O)C(C(=O)O[C@H]1C[C@@H](C)CCC1C(C)C)C(O)[C@@H]1OC(C)(C)O[C@H]1C1COC(C)(C)O1` (stereo partly specified), for which the TGI in the experiment on HOP-62 NSCLC was 37.5 µM; in the experiment with A549 NSCLC it was 66.6 µM; with SF-268 CNS it was 42.7 µM; in the experiment on U251 CNS, 27.2 µM; in the experiment on MDA-N, 35.4 µM; with NCI-H23 lung, 31.9 µM. The same compound registered a TGI in the experiment with HL-60(TB) leukemia of 42.2 µM.

For the compound `Cc1nnc(-n2c(O)cc(=O)n(-c3ccccc3)c2=S)nc1/C=C/c1ccc(N(C)C)cc1`, the TGI with HOP-62 NSCLC was over 100 µM; in the experiment with A549 NSCLC, over 59 µM; in the experiment on SF-268 CNS it was over 53.8 µM; in the experiment with U251 CNS, over 46.4 µM; in the experiment with MDA-N, over 100 µM; in the experiment on NCI-H23 lung, 69.4 µM. In addition, the TGI in the experiment on HL-60(TB) leukemia worked out at 7.1 µM.

For the compound `N#Cc1ccc(Oc2nc3ccc(C(F)(F)F)cc3nc2-c2ccccc2)cc1`, the TGI in the experiment on HOP-62 NSCLC was found to be 36 µM; with A549 NSCLC it was 35.9 µM; in the experiment on SF-268 CNS it was 76.4 µM; in the experiment with U251 CNS, 30.9 µM; in the experiment on MDA-N, 57.8 µM; in the experiment with NCI-H23 lung it was 32 µM. Besides, in the experiment with HL-60(TB) leukemia, the TGI came to 46.3 µM.

For the compound `CS(=O)(=O)OCCCOS(C)(=O)=O`, the TGI in the experiment with DMS 273 small cell lung, in the experiment with M19-MEL melanoma, in the experiment with XF 498 CNS, with DMS 114 small cell lung, in the experiment with HOP-62 NSCLC and in the experiment with DLD-1 colon was over 100 µM throughout. For the same compound, the TGI in the experiment with KM20L2 colon, in the experiment on A549 NSCLC, in the experiment with SF-268 CNS, in the experiment on U251 CNS, with NCI-H23 lung and with SNB-78 CNS was over 100 µM each time. This compound displayed a TGI in the experiment on HL-60(TB) leukemia of over 100 µM.

Take `CC[C@@]12C=CC(=S)N(CCSc3ccccc3)[C@@H]1c1c(n(S(=O)(=O)c3ccc(OC)cc3)c3ccccc13)CC2`: the TGI with HOP-62 NSCLC, in the experiment with A549 NSCLC, in the experiment with SF-268 CNS, in the experiment with U251 CNS, in the experiment with MDA-N and in the experiment with NCI-H23 lung was over 100 µM throughout. In the experiment on HL-60(TB) leukemia, the TGI was over 100 µM.

On to `CC1(C)CC2(C)CC1CC2NC(=O)CCN1CCOCC1` (stereo unspecified), for which the TGI in the experiment with HOP-62 NSCLC, in the experiment with A549 NSCLC, in the experiment on SF-268 CNS, with U251 CNS, with MDA-N and with NCI-H23 lung was over 100 µM each time. In addition, the TGI in the experiment with HL-60(TB) leukemia is over 100 µM.
